Experimental data published in patent US20210395327A1, “Growth Hormone-Releasing Hormone Antagonists and Uses Thereof” (United States Government As Represented By The Department …, priority 2019, published 2021).
pIC50: −log10 of the molar value. Entries after “also recorded” stand apart in the source; their conditions may differ. Non-standard residues stand in square brackets, D forms with d. Residues, ends and D or L forms follow the SMILES beside them. *: point of attachment. Phenylacetyl(2,3,4,5,6-F5) = O=C(Cc1c(F)c(F)c(F)c(F)c1F)*; Phe(F5) = N[C@@H](Cc1c(F)c(F)c(F)c(F)c1F)C(=O)O; Phe(4-Cl) = N[C@@H](Cc1ccc(Cl)cc1)C(=O)O; hArg = N=C(N)NCCCC[C@H](N)C(=O)O; 12Ado = NCCCCCCCCCCCC(=O)O; Nle = CCCC[C@H](N)C(=O)O; Orn = NCCC[C@H](N)C(=O)O; Abu = CC[C@H](N)C(=O)O; PhAc = O=C(Cc1ccccc1)*

Legend:
HCC827 lung cancer cells = assay: In vitro cell viability, HCC827; type: cell-based, human; conditions: for In vitro relative inhibitory potency in comparison to MIA-602, HCC827: Table 3B, 5 μM for 72 H, MIA-602 = 1
Procedure, shortened: (§1)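 Viability by CellTiter 96 aqueous one solution (MTS) after 72 h exposure to antagonist at 5 μM (some at 2 μM), following 24 h starvation in 0.5% FBS. Results given as percentage inhibition relative to MIA602.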

[1] = tested on: CFPAC-1 pancreatic cancer cells; assay: In vitro cell viability, CFPAC-1; type: cell-based, human; conditions: for In vitro relative inhibitory potency in comparison to MIA-602, CFPAC-1: Table 3B, 5 μM for 72 H, MIA-602 = 1
Procedure, shortened: as §1

[2] = tested on: GH release from rat pituitary cells; assay: Inhibition of GH release from rat pituitary cells in vitro (GH ELISA); type: cell-based; conditions: for Relative GH release: analogs 20 nM, then with 1 nM GHRH(1-29)NH2 for 30 minutes, Control = 1.00; for inhibitory effects on the release of GH, compared with MIA-602 (in words): rat pituitary cells in vitro, 20 nM
Procedure: In vitro assessment of the antagonistic activity of GHRH analogs. Rats were decapitated and pituitaries were collected in pre-warmed HBSS (Hanks' Balanced Salt Solution). Tissue was then cut into small pieces and digested in HBSS medium containing 3% BSA, 50 μg/ml gentamycin and 0.5% collagenase for 50 minutes at 37° C. Cells were further dispersed by pipetting and passed through a 100 μm cell strainer with the addition of DMEM containing 50 μg/ml gentamycin. 10% horse serum and 2.5% FBS (growth medium). Cells were harvested at 475×g for 2 minutes, resuspended in fresh growth medium and seeded onto poly-D-lysine-coated 24-well plates (7 pituitaries/plate). Cells were left to recover for 4 days. Growth medium was then replaced with serum-free DMEM for 4 hours and GHRH analogs (at concentration of 20 nM) were added in DMEM containing 0.1% BSA for 30 minutes. Cells were replenished with medium containing the same concentration of the analogs and 1 nM GHRH(1-29)NH2 for 30 minutes. Medium from this step was collected, centrifuged at 800 g for 3 minutes and GH concentration was determined by ELISA (ALPCO Diagnostics, Mill Valley, Calif.) according to the manufacturer's instruction.

[3] = target: T1, membrane GHRH-receptors on human anterior pituitary cells (Homo sapiens, UniProt Q02643); assay: Receptor binding, displacement of 125I-[His1,Nle27]-hGH-RH(1-32)NH2 on human pituitary membranes; conditions: for pIC50: membrane receptors on human anterior pituitary cells, mean of two to three determinations, read-out: IC50; for binding affinity to membrane receptors of human pituitary cells (in words): competitive binding, human pituitary membrane fractions
T1 construct: Human pituitary was purchased from the National Hormone and Peptide Program; tissue National Hormone and Peptide Program; host or cells: human pituitary (membrane fractions)
T1 sequence (Q02643 23-423): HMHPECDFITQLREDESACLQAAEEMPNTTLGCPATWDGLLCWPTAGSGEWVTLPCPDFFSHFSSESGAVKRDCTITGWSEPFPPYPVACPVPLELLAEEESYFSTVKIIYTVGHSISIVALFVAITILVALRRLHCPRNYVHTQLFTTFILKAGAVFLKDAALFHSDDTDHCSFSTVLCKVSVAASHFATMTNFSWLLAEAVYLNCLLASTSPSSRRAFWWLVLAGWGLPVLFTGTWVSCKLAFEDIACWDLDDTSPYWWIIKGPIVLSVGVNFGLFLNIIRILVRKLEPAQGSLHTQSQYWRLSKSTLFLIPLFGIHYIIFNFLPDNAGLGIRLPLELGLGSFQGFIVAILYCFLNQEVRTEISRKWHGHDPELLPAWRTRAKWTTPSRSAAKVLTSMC
Procedure, shortened: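 Membrane fractions from human pituitary; peptides displace 125I-[His1,Nle27]-hGH-RH(1-32)NH2. IC50 is the dose giving 50% inhibition of specific binding, from duplicate tubes. Relative affinity is the ratio of test IC50 to hGH-RH(1-29)NH2 IC50.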

[4] = antagonist 5 μM for 72 h, cell proliferation assay, MIA602 = 1

| pIC50 [3] | Compound | In vitro relative inhibitory potency in comparison to MIA-602, HCC827 (HCC827 lung cancer cells) | In vitro relative inhibitory potency in comparison to MIA-602, CFPAC-1 [1] | Relative GH release [2] | inhibitory effects on the release of GH, compared with MIA-602 (in words) [2] | binding affinity to membrane receptors of human pituitary cells (in words) [3] | relative inhibitory potency in comparison to MIA-602, Lung IICC827 (HCC827 lung cancer cells; [4]) | relative inhibitory potency in comparison to MIA-602, Pancreatic CFPAC-1 [1, 4] |
| --- | --- | --- | --- | --- | --- | --- | --- | --- |
| 9.52 | CCCC[C@H](NC(=O)[C@@H](NC(=O)[C@H](CC(=O)O)NC(=O)[C@H](CCC(N)=O)NC(=O)[C@H](CC(C)C)NC(=O)[C@H](CC(C)C)NC(=O)[C@H](CCCCN)NC(=O)[C@H](CCCNC(=N)N)NC(=O)[C@H](C)NC(=O)[C@H](CO)NC(=O)[C@H](CC(C)C)NC(=O)[C@H](CCC(N)=O)NC(=O)[C@H](CC)NC(=O)[C@H](CC(C)C)NC(=O)[C@@H](NC(=O)[C@H](CCCCN)NC(=O)[C@H](CCCNC(=N)N)NC(=O)[C@H](Cc1ccc(OC)cc1)NC(=O)[C@H](CCCCNC(=N)N)NC(=O)[C@H](CC(N)=O)NC(=O)[C@@H](NC(=O)[C@H](Cc1ccc(Cl)cc1)NC(=O)[C@@H](NC(=O)[C@H](C)NC(=O)[C@H](CC(=O)O)NC(=O)[C@@H](CCCNC(=N)N)NC(=O)[C@H](Cc1ccc(O)cc1)NC(=O)CCCCCCCCCCCNC(=O)Cc1c(F)c(F)c(F)c(F)c1F)[C@@H](C)CC)[C@@H](C)O)C(C)C)[C@@H](C)CC)C(=O)N[C@H](CCCNC(=N)N)C(=O)N[C@@H](CCCCNC(=N)N)C(=O)NCCCCCCCCCCCC(N)=O [AVR-333, 5FPhAC-Ada-Tyr-DArg-Asp-Ala-Ile-Cpa-Thr-Asn-Har-Tyr(Me)-Arg-Lys-Val-Leu-Abu-Gln-Leu-Ser-Ala-Arg-Lys-Leu-Leu-Gln-Asp-Ile-Nle-DArg-Har-Ada-NH2] ({Phenylacetyl(2,3,4,5,6-F5)-12Ado}-Y[dR]DAI[Phe(4-Cl)]TN[hArg]Y(Me)RKVL[Abu]QLSARKLLQDI[Nle][dR][hArg][12Ado]-NH2) | 1.177 | 2.288 | 0.88 ± 0.03 | – | – | – | – |
| 10.05 | CCCC[C@H](NC(=O)[C@@H](NC(=O)[C@H](CC(=O)O)NC(=O)[C@H](CCC(N)=O)NC(=O)[C@H](CC(C)C)NC(=O)[C@H](CC(C)C)NC(=O)[C@H](CCCCN)NC(=O)[C@H](CCCNC(=N)N)NC(=O)[C@H](C)NC(=O)[C@H](CO)NC(=O)[C@H](CC(C)C)NC(=O)[C@H](CCC(N)=O)NC(=O)[C@H](CC)NC(=O)[C@H](CC(C)C)NC(=O)[C@@H](NC(=O)[C@H](CCCCN)NC(=O)[C@H](CCCNC(=N)N)NC(=O)[C@H](Cc1ccc(OC)cc1)NC(=O)[C@H](CCCCNC(=N)N)NC(=O)[C@H](C)NC(=O)[C@@H](NC(=O)[C@H](Cc1c(F)c(F)c(F)c(F)c1F)NC(=O)[C@@H](NC(=O)[C@H](C)NC(=O)[C@H](CC(=O)O)NC(=O)[C@@H](CCCNC(=N)N)NC(=O)[C@H](Cc1ccc(O)cc1)NC(=O)CCCCCCCCCCCNC(=O)Cc1c(F)c(F)c(F)c(F)c1F)[C@@H](C)CC)[C@@H](C)O)C(C)C)[C@@H](C)CC)C(=O)N[C@H](CCCNC(=N)N)C(=O)N[C@@H](CCCCNC(=N)N)C(=O)NCCCCCCCCCCCC(N)=O [AVR-352, 5FPhAC-Ada-Tyr-DArg-Asp-Ala-Ile-5FPhe-Thr-Ala-Har-Tyr(Me)-Arg-Lys-Val-Leu-Abu-Gln-Leu-Ser-Ala-Arg-Lys-Leu-Leu-Gln-Asp-Ile-Nle-DArg-Har-Ada-NH2] ({Phenylacetyl(2,3,4,5,6-F5)-12Ado}-Y[dR]DAI[Phe(F5)]TA[hArg]Y(Me)RKVL[Abu]QLSARKLLQDI[Nle][dR][hArg][12Ado]-NH2) | 2.01 | 1.576 | 0.72 ± 0.03 | higher inhibitory effects than MIA-602 | higher binding affinity in comparison to MIA-602; also recorded: highest binding affinities | – | – |
| 9.96 | CCCC[C@H](NC(=O)[C@@H](NC(=O)[C@H](CC(=O)O)NC(=O)[C@H](CCC(N)=O)NC(=O)[C@H](CC(C)C)NC(=O)[C@H](CC(C)C)NC(=O)[C@H](CCCCN)NC(=O)[C@H](CCCNC(=N)N)NC(=O)[C@H](C)NC(=O)[C@H](CO)NC(=O)[C@H](CC(C)C)NC(=O)[C@H](CCC(N)=O)NC(=O)[C@H](CC)NC(=O)[C@H](CC(C)C)NC(=O)[C@@H](NC(=O)[C@H](CCCCN)NC(=O)[C@H](CCCNC(=N)N)NC(=O)[C@H](Cc1c(F)c(F)c(F)c(F)c1F)NC(=O)[C@H](CCCCNC(=N)N)NC(=O)[C@H](C)NC(=O)[C@@H](NC(=O)[C@H](Cc1ccc(Cl)cc1)NC(=O)[C@@H](NC(=O)[C@H](C)NC(=O)[C@H](CC(=O)O)NC(=O)[C@@H](CCCNC(=N)N)NC(=O)[C@H](Cc1ccc(O)cc1)NC(=O)CCCCCCCCCCCNC(=O)Cc1c(F)c(F)c(F)c(F)c1F)[C@@H](C)CC)[C@@H](C)O)C(C)C)[C@@H](C)CC)C(=O)N[C@H](CCCNC(=N)N)C(=O)N[C@@H](CCCCNC(=N)N)C(=O)NCCCCCCCCCCCC(N)=O [AVR-353, 5FPhAC-Ada-Tyr-DArg-Asp-Ala-Ile-Cpa-Thr-Ala-Har-5FPhe-Arg-Lys-Val-Leu-Abu-Gln-Leu-Ser-Ala-Arg-Lys-Leu-Leu-Gln-Asp-Ile-Nle-DArg-Har-Ada-NH2] ({Phenylacetyl(2,3,4,5,6-F5)-12Ado}-Y[dR]DAI[Phe(4-Cl)]TA[hArg][Phe(F5)]RKVL[Abu]QLSARKLLQDI[Nle][dR][hArg][12Ado]-NH2) | 1.641 | 2.922 | 0.65 ± 0.08 | higher inhibitory effects than MIA-602 | higher binding affinity in comparison to MIA-602; also recorded: highest binding affinities | – | – |
| – | CCCC[C@H](NC(=O)[C@@H](NC(=O)[C@H](CC(=O)O)NC(=O)[C@H](CCC(N)=O)NC(=O)[C@H](CC(C)C)NC(=O)[C@H](CC(C)C)NC(=O)[C@H](CCCN)NC(=O)[C@H](Cc1c[nH]cn1)NC(=O)[C@H](C)NC(=O)[C@H](CO)NC(=O)[C@H](CC(C)C)NC(=O)[C@H](CCC(N)=O)NC(=O)[C@H](CC)NC(=O)[C@H](CC(C)C)NC(=O)[C@@H](NC(=O)[C@H](CCCN)NC(=O)[C@H](Cc1c[nH]cn1)NC(=O)[C@H](Cc1ccc(OC)cc1)NC(=O)[C@H](CCCCNC(=N)N)NC(=O)[C@H](C)NC(=O)[C@@H](NC(=O)[C@H](Cc1c(F)c(F)c(F)c(F)c1F)NC(=O)[C@@H](NC(=O)[C@H](C)NC(=O)[C@H](CC(=O)O)NC(=O)[C@@H](CCCNC(=N)N)NC(=O)[C@H](Cc1ccc(O)cc1)NC(=O)CCCCCCCCCCCNC(=O)Cc1ccccc1)[C@@H](C)CC)[C@@H](C)O)C(C)C)[C@@H](C)CC)C(=O)N[C@H](CCCNC(=N)N)C(=O)N[C@@H](CCCCNC(=N)N)C(N)=O [MIA-602, PhAC-Ada, Tyr D-Arg, Asp, Ala, Ile, 5FPhe, Thr, Ala, Har, Tyr(Me), His, Orn, Val, Leu, Abu, Gin, Leu, Ser, Ala, His, Om, Leu, Leu, Gin, Asp, Ile; Nle, D-Arg, Har NH2, reference compound] ({PhAc-12Ado}-Y[dR]DAI[Phe(F5)]TA[hArg]Y(Me)H[Orn]VL[Abu]QLSAH[Orn]LLQDI[Nle][dR][hArg]-NH2) | 1 | 1 | 0.78 ± 0.01 | – | – | 1 | 1 |
